What was measured:
ERK5 = biological target: T1, ERK5 (Homo sapiens, UniProt Q13164); test: Probe-based (AX9989 acyl phosphate ATP probe) kinase profiling in Jurkat lysate: ERK5; type: binding; settings: for IC50: Jurkat lysate; for inhibition at 1 µM: screening concentration 1 μM
T1 construct: screened for activity against several kinases in Jurkat cells; endogenous in cells; host or cells: Jurkat cell lysate
In short: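 Gel-filtered Jurkat lysate (5 mg/ml, 20 mM MnCl2) preincubated 15 min at room temperature with compound, then labelled with 5 μM AX9989 acyl phosphate ATP probe. Probe-labelled ERK5 active-site peptides quantified by LC/MS after trypsin digestion and streptavidin capture; IC50 calculated from percent inhibition at the screening concentration.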

AurA = biological target: T2, AurA (Homo sapiens, UniProt O14965); test: Probe-based (AX9989) kinase profiling in Jurkat lysate: AurA; type: binding; settings: for inhibition at 1 µM: screening concentration 1 μM
T2 construct: screened for activity against several kinases in Jurkat cells; endogenous in cells; host or cells: Jurkat cell lysate
T2 sequence (O14965 1-403): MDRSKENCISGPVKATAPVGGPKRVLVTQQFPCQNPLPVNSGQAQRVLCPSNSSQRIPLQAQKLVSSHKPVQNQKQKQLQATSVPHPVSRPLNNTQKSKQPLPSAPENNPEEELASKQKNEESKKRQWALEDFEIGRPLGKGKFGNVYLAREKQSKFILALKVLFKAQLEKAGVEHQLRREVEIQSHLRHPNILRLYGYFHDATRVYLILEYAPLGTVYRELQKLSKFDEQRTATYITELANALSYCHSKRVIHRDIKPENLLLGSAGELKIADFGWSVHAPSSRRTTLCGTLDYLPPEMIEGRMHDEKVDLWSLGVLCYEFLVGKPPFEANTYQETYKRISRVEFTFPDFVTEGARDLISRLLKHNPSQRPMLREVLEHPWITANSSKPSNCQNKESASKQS
In short: (§1)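 Jurkat lysate, HEPES pH 7.5 buffer + 20 mM MnCl2; cpd 15 min RT; AX9989 ATP probe 5 μM final, RT. Trypsin digest, streptavidin capture, LC/MS; % inhibition vs vehicle from labeled-peptide signal.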

AurB or AurC = test: Probe-based (AX9989) kinase profiling in Jurkat lysate: AurB or AurC; type: binding
In short: as §1

JAK1 = biological target: T3, JAK1 (Homo sapiens, UniProt P23458); test: Probe-based (AX9989) kinase profiling in Jurkat lysate: JAK1; type: binding; settings: for inhibition at 1 µM: screening concentration 1 μM
T3 construct: screened for activity against several kinases in Jurkat cells; endogenous in cells; host or cells: Jurkat cell lysate
T3 sequence (P23458 whole entry): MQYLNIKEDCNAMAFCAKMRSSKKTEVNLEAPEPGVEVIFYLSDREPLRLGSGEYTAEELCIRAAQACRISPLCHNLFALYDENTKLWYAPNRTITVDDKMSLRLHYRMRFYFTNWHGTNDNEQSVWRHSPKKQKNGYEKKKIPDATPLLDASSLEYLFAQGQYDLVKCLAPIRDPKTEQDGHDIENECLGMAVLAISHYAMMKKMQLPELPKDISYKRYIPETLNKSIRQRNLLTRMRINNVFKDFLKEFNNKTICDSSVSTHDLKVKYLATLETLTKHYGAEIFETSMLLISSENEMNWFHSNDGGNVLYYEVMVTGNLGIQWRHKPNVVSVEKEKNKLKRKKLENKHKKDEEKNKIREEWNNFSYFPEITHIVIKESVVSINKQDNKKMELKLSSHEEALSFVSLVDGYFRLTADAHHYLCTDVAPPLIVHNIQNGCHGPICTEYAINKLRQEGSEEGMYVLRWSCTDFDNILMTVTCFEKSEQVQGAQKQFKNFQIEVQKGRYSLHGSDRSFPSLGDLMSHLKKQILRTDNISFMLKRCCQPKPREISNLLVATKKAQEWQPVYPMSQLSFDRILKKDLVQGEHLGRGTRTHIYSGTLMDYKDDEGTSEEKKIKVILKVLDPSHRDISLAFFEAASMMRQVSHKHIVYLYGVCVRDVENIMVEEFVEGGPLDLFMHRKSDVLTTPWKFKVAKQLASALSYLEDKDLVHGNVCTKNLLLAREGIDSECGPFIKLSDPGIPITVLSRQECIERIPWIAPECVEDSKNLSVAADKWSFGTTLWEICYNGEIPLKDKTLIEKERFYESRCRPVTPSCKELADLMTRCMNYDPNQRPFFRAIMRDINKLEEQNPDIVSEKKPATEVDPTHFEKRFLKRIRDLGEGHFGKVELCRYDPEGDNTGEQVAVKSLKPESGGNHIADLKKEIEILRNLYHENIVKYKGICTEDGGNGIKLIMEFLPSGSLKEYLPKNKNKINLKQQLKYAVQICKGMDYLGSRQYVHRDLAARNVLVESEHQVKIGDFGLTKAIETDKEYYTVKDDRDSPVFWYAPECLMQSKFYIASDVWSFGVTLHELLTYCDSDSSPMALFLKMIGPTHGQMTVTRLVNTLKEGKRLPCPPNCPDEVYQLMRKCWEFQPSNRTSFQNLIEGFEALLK
In short: as §1

AMPKa1 or AMPKa2 = test: Probe-based (AX9989) kinase profiling in Jurkat lysate: AMPKa1 or AMPKa2; type: binding
In short: as §1

TAO2 = biological target: T4, TAO2 (Homo sapiens, UniProt Q9UL54); test: Probe-based (AX9989) kinase profiling in Jurkat lysate: TAO2; type: binding; settings: for inhibition at 1 µM: screening concentration 1 μM
T4 construct: screened for activity against several kinases in Jurkat cells; endogenous in cells; host or cells: Jurkat cell lysate
T4 sequence (Q9UL54 1-1235): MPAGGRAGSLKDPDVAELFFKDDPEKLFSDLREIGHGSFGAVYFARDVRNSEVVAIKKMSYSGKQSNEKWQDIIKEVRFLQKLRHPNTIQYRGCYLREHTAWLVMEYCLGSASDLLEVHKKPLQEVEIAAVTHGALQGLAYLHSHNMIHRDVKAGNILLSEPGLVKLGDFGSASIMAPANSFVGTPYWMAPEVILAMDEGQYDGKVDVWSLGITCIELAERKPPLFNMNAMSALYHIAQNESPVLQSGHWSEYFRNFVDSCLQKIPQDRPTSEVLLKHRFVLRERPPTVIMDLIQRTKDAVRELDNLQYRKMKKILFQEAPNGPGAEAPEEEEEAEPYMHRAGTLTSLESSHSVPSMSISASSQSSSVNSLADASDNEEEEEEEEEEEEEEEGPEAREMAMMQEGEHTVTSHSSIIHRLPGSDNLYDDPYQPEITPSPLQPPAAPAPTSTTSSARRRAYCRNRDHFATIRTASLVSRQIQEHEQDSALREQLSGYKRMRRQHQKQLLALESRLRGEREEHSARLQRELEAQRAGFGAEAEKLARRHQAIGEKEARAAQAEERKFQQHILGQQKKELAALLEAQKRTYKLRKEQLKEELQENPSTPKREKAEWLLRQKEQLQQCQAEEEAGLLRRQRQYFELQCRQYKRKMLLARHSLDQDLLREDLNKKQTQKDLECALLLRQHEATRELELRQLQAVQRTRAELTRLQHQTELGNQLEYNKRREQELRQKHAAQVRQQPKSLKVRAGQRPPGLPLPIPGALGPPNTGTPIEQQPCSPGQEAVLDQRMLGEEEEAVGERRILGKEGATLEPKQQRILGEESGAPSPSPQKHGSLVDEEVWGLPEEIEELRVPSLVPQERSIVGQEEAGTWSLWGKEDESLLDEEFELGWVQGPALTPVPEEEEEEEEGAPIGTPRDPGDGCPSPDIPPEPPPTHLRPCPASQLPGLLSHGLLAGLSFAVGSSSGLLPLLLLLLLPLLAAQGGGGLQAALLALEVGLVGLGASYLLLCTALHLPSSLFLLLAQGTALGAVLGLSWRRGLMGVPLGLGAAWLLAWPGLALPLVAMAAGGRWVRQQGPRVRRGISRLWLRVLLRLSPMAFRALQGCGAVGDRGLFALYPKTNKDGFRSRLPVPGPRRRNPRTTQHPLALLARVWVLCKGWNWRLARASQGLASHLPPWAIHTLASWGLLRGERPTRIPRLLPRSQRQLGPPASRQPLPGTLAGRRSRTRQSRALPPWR
In short: as §1

ACK = biological target: T5, ACK (Homo sapiens, UniProt Q07912); test: Probe-based (AX9989) kinase profiling in Jurkat lysate: ACK; type: binding; settings: for inhibition at 1 µM: screening concentration 1 μM
T5 construct: screened for activity against several kinases in Jurkat cells; endogenous in cells; host or cells: Jurkat cell lysate
T5 sequence (Q07912 whole entry): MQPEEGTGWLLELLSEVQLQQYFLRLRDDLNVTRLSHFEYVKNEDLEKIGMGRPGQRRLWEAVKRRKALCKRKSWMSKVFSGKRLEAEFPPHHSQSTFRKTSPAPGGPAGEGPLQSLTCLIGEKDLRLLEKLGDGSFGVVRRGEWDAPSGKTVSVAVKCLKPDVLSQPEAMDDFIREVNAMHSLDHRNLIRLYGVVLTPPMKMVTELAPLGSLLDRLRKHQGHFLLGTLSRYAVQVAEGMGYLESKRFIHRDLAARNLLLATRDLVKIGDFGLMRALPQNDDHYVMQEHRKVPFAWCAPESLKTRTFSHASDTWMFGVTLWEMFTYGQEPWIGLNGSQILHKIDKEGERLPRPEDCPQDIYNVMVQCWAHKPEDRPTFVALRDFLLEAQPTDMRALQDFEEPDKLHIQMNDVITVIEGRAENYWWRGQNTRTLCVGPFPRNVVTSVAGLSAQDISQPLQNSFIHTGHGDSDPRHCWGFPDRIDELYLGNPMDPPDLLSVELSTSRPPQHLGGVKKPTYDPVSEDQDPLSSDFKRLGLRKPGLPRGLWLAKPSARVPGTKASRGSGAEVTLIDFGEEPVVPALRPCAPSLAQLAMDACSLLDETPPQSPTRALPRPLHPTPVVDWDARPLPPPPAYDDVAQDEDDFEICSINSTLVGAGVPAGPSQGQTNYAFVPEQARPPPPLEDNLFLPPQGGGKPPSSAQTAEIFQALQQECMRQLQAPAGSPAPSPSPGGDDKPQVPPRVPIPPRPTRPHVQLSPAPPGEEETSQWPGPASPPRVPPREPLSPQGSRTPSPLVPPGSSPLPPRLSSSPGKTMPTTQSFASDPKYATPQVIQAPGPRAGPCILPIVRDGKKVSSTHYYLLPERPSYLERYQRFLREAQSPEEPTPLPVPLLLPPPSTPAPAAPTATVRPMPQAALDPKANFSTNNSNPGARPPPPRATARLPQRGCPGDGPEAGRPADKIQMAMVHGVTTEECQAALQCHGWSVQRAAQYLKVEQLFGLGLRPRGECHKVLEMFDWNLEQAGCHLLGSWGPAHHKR
In short: as §1

ABL or ARG = test: Probe-based (AX9989) kinase profiling in Jurkat lysate: ABL or ARG; type: binding
In short: as §1

human PBMCs = test: Human PBMC TNF-α response to endotoxin (ELISA); type: cell-based; settings: 0.1 μg/ml LPS 16 h, read-out: EC50 for the inhibition of the human PBMC TNF-α response to endotoxin, ave. ± S.D.
In short: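 PBMCs at 2e6 cells/ml in RPMI 1640 with 10% charcoal-dextran-treated FBS were pre-treated 1 h at 37 °C with compound (4-point 1:5 dilution from 10 μM). Stimulation with 0.1 μg/ml E. coli 0111:B4 LPS for 16 h; TNF-α measured by ELISA (A450) in 25-fold diluted supernatant.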

[1] = calculated from percent inhibition and screening concentration, AX9989 probe
[2] = read-out: ERK5 Inhibition % at indicated screening concentration
[3] = read-out: AurA Inhibition % at indicated screening concentration
[4] = read-out: JAK1 Inhibition % at indicated screening concentration
[5] = read-out: TAO2 Inhibition % at indicated screening concentration
[6] = read-out: ACK Inhibition % at indicated screening concentration

T1 sequence (Q13164 whole entry): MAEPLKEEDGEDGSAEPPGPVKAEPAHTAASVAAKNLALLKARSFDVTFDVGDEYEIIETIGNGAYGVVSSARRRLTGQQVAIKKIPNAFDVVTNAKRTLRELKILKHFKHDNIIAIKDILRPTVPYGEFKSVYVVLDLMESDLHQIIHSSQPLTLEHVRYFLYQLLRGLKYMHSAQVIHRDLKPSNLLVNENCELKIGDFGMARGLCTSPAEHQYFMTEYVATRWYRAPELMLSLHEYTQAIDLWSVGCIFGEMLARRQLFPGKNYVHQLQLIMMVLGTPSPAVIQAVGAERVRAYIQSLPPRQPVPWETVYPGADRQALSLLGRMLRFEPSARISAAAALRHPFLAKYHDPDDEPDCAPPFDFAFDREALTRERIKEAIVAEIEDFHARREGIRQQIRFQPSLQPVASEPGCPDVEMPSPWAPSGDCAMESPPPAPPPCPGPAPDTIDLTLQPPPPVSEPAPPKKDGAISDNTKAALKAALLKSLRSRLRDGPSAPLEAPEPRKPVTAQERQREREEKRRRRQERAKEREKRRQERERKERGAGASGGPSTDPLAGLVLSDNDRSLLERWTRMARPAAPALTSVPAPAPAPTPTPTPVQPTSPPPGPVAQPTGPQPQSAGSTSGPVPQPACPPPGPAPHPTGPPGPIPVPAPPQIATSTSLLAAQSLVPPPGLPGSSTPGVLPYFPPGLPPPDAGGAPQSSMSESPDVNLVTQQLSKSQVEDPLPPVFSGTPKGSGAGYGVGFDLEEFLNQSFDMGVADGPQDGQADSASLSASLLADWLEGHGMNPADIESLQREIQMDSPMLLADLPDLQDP

Structure (SMILES)	IC50 (ERK5; [1]) [nM]	inhibition at 1 µM (ERK5; [2]) [%]	inhibition at 1 µM (AurA; [3]) [%]	AurB or AurC Inhibition % at indicated screening concentration (AurB or AurC; screening concentration 1 μM)	inhibition at 1 µM (JAK1; [4]) [%]	AMPKa1 or AMPKa2 Inhibition % at indicated screening concentration (AMPKa1 or AMPKa2; screening concentration 1 μM)	inhibition at 1 µM (TAO2; [5]) [%]	inhibition at 1 µM (ACK; [6]) [%]	ABL or ARG Inhibition % at indicated screening concentration (ABL or ARG; screening concentration 1 μM)	EC50 (human PBMCs) [nM]	also measured
CC(=O)N1CCN(C(=O)c2ccc(Nc3cc4c(cn3)N(C)C(=O)c3ccccc3N4C)c(F)c2)CC1 [Compound T71]	≤ 50	> 90	≤ 35	E (E is ≦35%)	≤ 35	E (E is ≦35%)	≤ 35	≤ 35	E (E is ≦35%)	4200	–
CN1C(=O)c2ccccc2N(C)c2cc(Nc3ccc(C(=O)N4CCN(S(C)(=O)=O)CC4)cc3F)ncc21 [Compound T72]	≤ 50	> 90	≤ 35	D (D is >35% to ≦50%)	≤ 35	E (E is ≦35%)	≤ 35	≤ 35	E (E is ≦35%)	4250	–
CCOc1cc(C(=O)N2CCC(c3c[nH]cn3)CC2)ccc1Nc1cc2c(cn1)N(C)C(=O)c1ccccc1N2C [Compound 35]	–	–	–	–	–	–	–	–	–	6000	IC50 (ERK5; calculated from percent inhibition of AX9989 labeling and the screening concentration): 101 to 500 nM; inhibition at 0.1 µM (ERK5; screening concentration 0.1 μM, read-out: Kinase inhibition % at indicated screening concentration: ERK5): 35 to 50%; inhibition at 0.1 µM (AurA; screening concentration 0.1 μM, read-out: Kinase inhibition % at indicated screening concentration: AurA): ≤ 35%; Kinase inhibition % at indicated screening concentration: AurB or AurC (AurB or AurC; screening concentration 0.1 μM): E (E is ≦35%); inhibition at 0.1 µM (JAK1; screening concentration 0.1 μM, read-out: Kinase inhibition % at indicated screening concentration: JAK1): ≤ 35%; Kinase inhibition % at indicated screening concentration: AMPKa1 or AMPKa2 (AMPKa1 or AMPKa2; screening concentration 0.1 μM): E (E is ≦35%); inhibition at 0.1 µM (TAO2; screening concentration 0.1 μM, read-out: Kinase inhibition % at indicated screening concentration: TAO2): ≤ 35%; inhibition at 0.1 µM (ACK; screening concentration 0.1 μM, read-out: Kinase inhibition % at indicated screening concentration: ACK): ≤ 35%; Kinase inhibition % at indicated screening concentration: ABL or ARG (ABL or ARG; screening concentration 0.1 μM): E (E is ≦35%)
CCOc1cc(C(=O)N2CCC(N3CCCC3)CC2)ccc1Nc1cc2c(cn1)N(C)C(=O)N1C=CC=CC1=N2 [Compound T66]	> 500	–	–	–	–	–	–	–	–	> 10000	inhibition at 10 µM (ERK5; screening concentration 10 μM, read-out: ERK5 Inhibition % at indicated screening concentration): 35 to 50%; inhibition at 10 µM (AurA; screening concentration 10 μM, read-out: AurA Inhibition % at indicated screening concentration): ≤ 35%; AurB or AurC Inhibition % at indicated screening concentration (AurB or AurC; screening concentration 10 μM): E (E is ≦35%); inhibition at 10 µM (JAK1; screening concentration 10 μM, read-out: JAK1 Inhibition % at indicated screening concentration): ≤ 35%; AMPKa1 or AMPKa2 Inhibition % at indicated screening concentration (AMPKa1 or AMPKa2; screening concentration 10 μM): E (E is ≦35%); inhibition at 10 µM (TAO2; screening concentration 10 μM, read-out: TAO2 Inhibition % at indicated screening concentration): ≤ 35%; inhibition at 10 µM (ACK; screening concentration 10 μM, read-out: ACK Inhibition % at indicated screening concentration): 50 to 75%; ABL or ARG Inhibition % at indicated screening concentration (ABL or ARG; screening concentration 10 μM): E (E is ≦35%)
CN1CCN([C@@H]2CCN(C(=O)c3ccc(Nc4cc5c(cn4)N(C)C(=O)c4ccccc4N5C)c(OC(F)F)c3)C2)CC1 [Compound T75]	≤ 50	> 90	≤ 35	E (E is ≦35%)	≤ 35	E (E is ≦35%)	≤ 35	≤ 35	E (E is ≦35%)	1550 ± 1110	–

Reference: patent US20170008888A1 (KYORIN PHARMACEUTICAL CO., LTD., priority 2014, published 2017)
